Reference: PubChem BioAssay AID192 (DTP/NCI, 2004)
“And” between values parts separate entries of the source, which are not always exact repeats. Equal entries are not always repeated. Inconclusive results and toxic doses are left out. Rule for the calls: active = survival T/C of 150% or more; inactive = T/C below 125% in these data.

Tested on: BDF1 mice, B16 melanoma ip, median survival T/C
Experiment: NCI In Vivo Anticancer Drug Screen. Data for tumor model B16 Melanoma (intraperitoneal) in B6D2F1 (BDF1) mice
Conditions: endpoint: median survival time, higher = longer survival
Procedure, shortened: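 Tumor-bearing mice received test compound or vehicle. Survival or tumor size was then measured in both groups. The treated-group figure was divided by the control-group figure.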

[1] = dose: 6.25 mg/kg/injection, schedule: Q01DX009 (ip), vehicle: saline with Tween-80
[2] = dose: 12.5 mg/kg/injection, schedule: Q01DX009 (ip), vehicle: saline with Tween-80
[3] = dose: 100.0 mg/kg/injection, schedule: Q01DX009 (ip), vehicle: Klucel (hydroxypropylcellulose) (HPC)
[4] = dose: 200.0 mg/kg/injection, schedule: Q01DX009 (ip), vehicle: Klucel (hydroxypropylcellulose) (HPC)
[5] = dose: 400.0 mg/kg/injection, schedule: Q01DX009 (ip), vehicle: Klucel (hydroxypropylcellulose) (HPC)
[6] = dose: 25.0 mg/kg/injection, schedule: Q01DX009 (ip), vehicle: saline with Tween-80
[7] = dose: 50.0 mg/kg/injection, schedule: Q01DX009 (ip), vehicle: saline with Tween-80
[8] = dose: 100.0 mg/kg/injection, schedule: Q01DX009 (ip), vehicle: saline with Tween-80
[9] = dose: 25.0 mg/kg/injection, schedule: Q01DX009 (ip), vehicle: Klucel (hydroxypropylcellulose) (HPC)
[10] = dose: 50.0 mg/kg/injection, schedule: Q01DX009 (ip), vehicle: Klucel (hydroxypropylcellulose) (HPC)
[11] = dose: 200.0 mg/kg/injection, schedule: Q01DX009 (ip), vehicle: saline with Tween-80
[12] = dose: 400.0 mg/kg/injection, schedule: Q01DX009 (ip), vehicle: saline with Tween-80
[13] = dose: 100.0 mg/kg/injection, schedule: Q04DX003 (ip), vehicle: saline with Tween-80
[14] = dose: 200.0 mg/kg/injection, schedule: Q04DX003 (ip), vehicle: saline with Tween-80
[15] = dose: 50.0 mg/kg/injection, schedule: Q04DX003 (ip), vehicle: saline with Tween-80

Measured: T/C

COc1ccc2c(c1OC(C)=O)-c1cc(O)cc3c1C(C2)N(C(=O)CN(CCCl)CCCl)CC3 (stereo not drawn)
inactive: dose: 6.25 mg/kg/injection, schedule: Q04DX003 (ip), vehicle: DMSO 103 % of control | dose: 12.5 mg/kg/injection, schedule: Q04DX003 (ip), vehicle: DMSO 121 % of control | dose: 25.0 mg/kg/injection, schedule: Q04DX003 (ip), vehicle: DMSO 110 % of control | dose: 100.0 mg/kg/injection, schedule: Q04DX003 (ip), vehicle: DMSO 112 % of control
active: dose: 3.12 mg/kg/injection, schedule: Q01DX009 (ip), vehicle: saline with Tween-80 168 % of control | [1] 187 % of control | [2] 197 % of control

CCCCCCCCCCCC(=O)CCC
inactive: [3] 93 % of control | [4] 91 % of control | [5] 90 % of control

O=S(=O)(Nc1cccc(C(F)(F)F)c1)c1ccccc1
inactive: [6] 108 % of control | [7] 101 % of control | [8] 97 % of control

CCOc1ccc(C(C)c2cc3c(cc2OC)OCO3)cc1 (stereo not drawn)
inactive: dose: 12.5 mg/kg/injection, schedule: Q01DX009 (ip), vehicle: distilled water + Tween-80 114 % of control | dose: 25.0 mg/kg/injection, schedule: Q01DX009 (ip), vehicle: distilled water + Tween-80 113 % of control

Cn1c2ccccc2c(=O)c2ccc(Cl)cc21
inactive: [9] 97 % of control | [10] 97 % of control | [3] 91 % of control

C1CC[N-]CC1.CC(=N\O)/C(C)=N/O.CC(=N\O)/C(C)=N/O.[Co+2].[c-]1ccccc1
inactive: [3] 90 % of control | [4] 93 % of control | [5] 90 % of control

CCc1cc(C)cc(OC(=O)Nc2ccc(Cl)cc2)c1
inactive: [8] 116 % of control | [11] 87 % of control | [12] 92 % of control

O=[N+]([O-])c1cc2c(c([N+](=O)[O-])c1)OCOC2
inactive: [4] 100 % of control

COC1(OC)C2C=CC1CC2
inactive: [7] 97 % of control | [8] 97 % of control | [11] 90 % of control | [12] 96 % of control

CCN(CC)CCCC(C)Nc1ccnc(/C=C/c2ccc(Cl)cc2)c1 (stereo not drawn)
inactive: dose: 12.5 mg/kg/injection, schedule: Q01DX009 (ip), vehicle: Klucel (hydroxypropylcellulose) (HPC) 86 % of control | dose: 18.75 mg/kg/injection, schedule: Q04DX003 (ip), vehicle: saline 86 % of control | [9] 92 % of control | dose: 37.5 mg/kg/injection, schedule: Q04DX003 (ip), vehicle: saline 93 % of control | dose: 75.0 mg/kg/injection, schedule: Q04DX003 (ip), vehicle: saline 89 % of control

S=C([S][Sn]([c]1ccccc1)([c]1ccccc1)[c]1ccccc1)N1CCOCC1
inactive: dose: 1.56 mg/kg/injection, schedule: Q01DX009 (ip), vehicle: saline with Tween-80 107 % of control | dose: 3.13 mg/kg/injection, schedule: Q01DX009 (ip), vehicle: saline with Tween-80 100 % of control | [1] 110 % of control

CCCCCC(O)C1C(=O)OC(C)C(O)/C=C/C=C/C=C/C=C\C=C(\C)C(O)CC(O)CC(O)CC(O)CC(O)CC(O)CC1O (stereo not drawn)
inactive: dose: 2.5 mg/kg/injection, schedule: Q01DX009 (ip), vehicle: saline 120 % of control | dose: 5.0 mg/kg/injection, schedule: Q01DX009 (ip), vehicle: saline 97 % of control | dose: 10.0 mg/kg/injection, schedule: Q01DX009 (ip), vehicle: saline 88 % of control

O=C(CC(=O)C(F)(F)F)c1csc2ccccc12
inactive: [2] 102 % of control | [6] 97 % of control | [7] 114 % of control

Cc1ccc(NC(=O)c2ccc(Cl)cc2)c(Br)c1
inactive: [13] 105 % of control | [14] 97 % of control | dose: 400.0 mg/kg/injection, schedule: Q04DX003 (ip), vehicle: saline with Tween-80 88 % of control

COc1cccc2c1C(=N)c1c(O)c3c(c(O)c1C2=O)C[C@@](O)(C(C)=O)C[C@@H]3OC1CC(N)C(O)C(C)O1 (stereo partly drawn)
active: dose: 1.0 mg/kg/injection, schedule: Q01DX009 (ip), vehicle: water 177 % of control | dose: 1.56 mg/kg/injection, schedule: Q01DX001 (ip), vehicle: water 163 % of control | dose: 2.0 mg/kg/injection, schedule: Q01DX009 (ip), vehicle: water 205 % of control | dose: 3.13 mg/kg/injection, schedule: Q01DX001 (ip), vehicle: water 159 % of control | dose: 4.0 mg/kg/injection, schedule: Q01DX009 (ip), vehicle: water 201 % of control | dose: 6.25 mg/kg/injection, schedule: Q01DX001 (ip), vehicle: water 166 % of control and 168 % of control and 185 % of control | dose: 12.5 mg/kg/injection, schedule: Q01DX001 (ip), vehicle: water 164 % of control and 201 % of control
inactive: dose: 12.0 mg/kg/injection, schedule: Q01DX001 (ip), vehicle: water 94 % of control | dose: 20.0 mg/kg/injection, schedule: Q01DX001 (ip), vehicle: water 95 % of control

N#CCC(=O)O
inactive: dose: 18.75 mg/kg/injection, schedule: Q01DX009 (ip), vehicle: saline 109 % of control | dose: 37.5 mg/kg/injection, schedule: Q01DX009 (ip), vehicle: saline 97 % of control

COC(=O)C(C)CC(C)(C=O)OC (stereo not drawn)
inactive: [8] 97 % of control | [11] 100 % of control | [12] 90 % of control

Cc1ccc(NC(=O)Oc2ccc(Br)cc2Br)c([N+](=O)[O-])c1
inactive: [2] 97 % of control | [6] 92 % of control | [7] 86 % of control

CC[CH2][Pb]([CH2]CC)([CH2]CC)[N]1C(=O)c2ccccc2C1=O
inactive: dose: 3.12 mg/kg/injection, schedule: Q01DX009 (ip), vehicle: Klucel (hydroxypropylcellulose) (HPC) 109 % of control | dose: 6.25 mg/kg/injection, schedule: Q01DX009 (ip), vehicle: Klucel (hydroxypropylcellulose) (HPC) 101 % of control

CCOC(=O)C(Cc1ccccc1)P(=O)(OCC)OCC (stereo not drawn)
inactive: [15] 100 % of control | [13] 95 % of control | [14] 90 % of control

CC#CC#C/C=C1\OC2(CCCCO2)C(O)C1OC(=O)CC(C)C (stereo not drawn)
inactive: dose: 10.0 mg/kg/injection, schedule: Q01DX009 (ip), vehicle: Klucel (hydroxypropylcellulose) (HPC) 103 % of control | dose: 20.0 mg/kg/injection, schedule: Q01DX009 (ip), vehicle: Klucel (hydroxypropylcellulose) (HPC) 103 % of control | dose: 40.0 mg/kg/injection, schedule: Q01DX009 (ip), vehicle: Klucel (hydroxypropylcellulose) (HPC) 94 % of control

CCC(N)Cc1ccc(OC)c(OC)c1 (stereo not drawn)
inactive: [10] 97 % of control | [3] 102 % of control | [4] 105 % of control

NNC(=O)c1ccc(N)cc1
inactive: [7] 112 % of control | [8] 102 % of control | [11] 97 % of control

COc1cc(O)c2c(c1)Cc1cc(C)cc(O)c1C2=O
inactive: [1] 93 % of control | [2] 98 % of control | [6] 98 % of control

CC(=O)N\C(N)=N/N=C\C(C)=N/N=C(\N)NC(C)=O
inactive: [7] 108 % of control | [8] 99 % of control | [11] 94 % of control

CCCC(CCC)(C(=O)OCC)C(=O)OCC
inactive: [3] 92 % of control | dose: 100.0 mg/kg/injection, schedule: Q04DX003 (ip), vehicle: Klucel (hydroxypropylcellulose) (HPC) 105 % of control | [4] 96 % of control | dose: 200.0 mg/kg/injection, schedule: Q04DX003 (ip), vehicle: Klucel (hydroxypropylcellulose) (HPC) 97 % of control | [5] 92 % of control | dose: 400.0 mg/kg/injection, schedule: Q04DX003 (ip), vehicle: Klucel (hydroxypropylcellulose) (HPC) 91 % of control

O=[N+]([O-])c1ccccc1O
inactive: [2] 97 % of control | dose: 12.5 mg/kg/injection, schedule: Q04DX003 (ip), vehicle: saline with Tween-80 94 % of control | [6] 92 % of control | dose: 25.0 mg/kg/injection, schedule: Q04DX003 (ip), vehicle: saline with Tween-80 91 % of control | [7] 100 % of control | [15] 100 % of control

CCOc1ccc(NC(=O)C(C)O)cc1 (stereo not drawn)
inactive: [8] 97 % of control | [11] 97 % of control | [12] 91 % of control

COc1ccc(CCN2CC(=O)NC(=O)C2)cc1OC
inactive: [9] 97 % of control | [10] 91 % of control | [3] 88 % of control | [4] 94 % of control | [5] 91 % of control

CCOC(=O)Nc1ccccc1
inactive: dose: 100.0 mg/kg/injection, schedule: Q04DX003 (ip), vehicle: gum acacia 95 % of control | dose: 200.0 mg/kg/injection, schedule: Q04DX003 (ip), vehicle: gum acacia 102 % of control

Cc1cc2ccccc2c[n+]1C
inactive: dose: 12.5 mg/kg/injection, schedule: Q04DX003 (ip), vehicle: saline 95 % of control | dose: 25.0 mg/kg/injection, schedule: Q04DX003 (ip), vehicle: saline 95 % of control | dose: 50.0 mg/kg/injection, schedule: Q04DX003 (ip), vehicle: saline 95 % of control
